In ChEMBL document CHEMBL3997785, “Optimization of 2-Anilino 4-Amino Substituted Quinazolines into Potent Antimalarial Agents with Oral in Vivo Activity” (J Med Chem, 2017):
In brackets after ≈: the same amount, converted by molar mass.

Key:
[1] = Selectivity index, ratio of EC50 for human HepG2 cells to EC50 for Plasmodium falciparum 3D7 asexual blood stage infected in human erythrocytes; assay type: toxicity, cell-based; conditions: read-out: Ratio EC50
[2] = test system: HepG2; experiment: Cytotoxicity against human HepG2 cells assessed as growth inhibition after 48 hrs by Cell Titer-Glo assay; assay type: cell-based; conditions: HepG2, 48 h
[3] = test system: Plasmodium falciparum; experiment: Antimalarial activity against Plasmodium falciparum 3D7 asexual blood stage infected in human erythrocytes incubated for 72 hrs by LDH assay; assay type: functional, cell-based; conditions: 3D7, 72 h
[4] = test system: Plasmodium falciparum; experiment: Antimalarial activity against Plasmodium falciparum NF54 harboring pfs16-LUC-GFP late stage 4 to 5 gametocytes after 48 hrs by MitoTracker Red staining based confocal microscopy; assay type: functional; conditions: NF54, 48 h
[5] = test system: Plasmodium falciparum; experiment: Antimalarial activity against Plasmodium falciparum NF54 harboring pfs16-LUC-GFP early stage 1 to 3 gametocytes after 48 hrs by MitoTracker Red staining based confocal microscopy; assay type: functional; conditions: NF54, 48 h
[6] = test system: Plasmodium falciparum; experiment: Antimalarial activity against Plasmodium falciparum NF54 harboring pfs16-LUC-GFP ring stage gametocytes after 24 hrs by MitoTracker Red staining based confocal microscopy; assay type: functional; conditions: NF54, 24 h
[7] = Hepatic extraction ratio in human liver microsomes at 1 uM in presence of NADPH by LC-MS method; assay type: ADME, microsome; conditions: read-out: ERH
[8] = Hepatic extraction ratio in mouse liver microsomes at 1 uM in presence of NADPH by LC-MS method; assay type: ADME, microsome; conditions: read-out: ERH
[9] = Aqueous solubility of the compound at pH 2 by nephelometry; assay type: physicochemical
[10] = Half life in human liver microsomes at 1 uM in presence of NADPH by LC-MS method; assay type: ADME, microsome
[11] = Aqueous solubility of the compound at pH 6.5 by nephelometry; assay type: physicochemical
[12] = Intrinsic clearance in human liver microsomes at 1 uM in presence of NADPH by LC-MS method; assay type: ADME, microsome; conditions: read-out: CLH
[13] = Half life in mouse liver microsomes at 1 uM in presence of NADPH by LC-MS method; assay type: ADME, microsome
[14] = Intrinsic clearance in mouse liver microsomes at 1 uM in presence of NADPH by LC-MS method; assay type: ADME, microsome; conditions: read-out: CLH
[15] = test system: Plasmodium falciparum; experiment: Antimalarial activity against chloroquine and mefloquine resistant Plasmodium falciparum W2mef infected in human erythrocytes incubated for 72 hrs by LDH assay; assay type: functional, cell-based
[16] = test system: Plasmodium falciparum; experiment: Antimalarial activity against synchronous culture of Plasmodium falciparum 3D7 ring stage parasite infected in human erythrocytes incubated for 24 hrs followed by compound wash out and measured after 24 hrs by NanoGlo-reagent based bioluminescence assay; assay type: functional, cell-based; conditions: 3D7, 24 h
[17] = test system: Plasmodium falciparum; experiment: Antimalarial activity against synchronous culture of Plasmodium falciparum 3D7 ring stage parasite infected in human erythrocytes incubated for 6 hrs followed by compound wash out and measured after 24 hrs by NanoGlo-reagent based bioluminescence assay; assay type: functional, cell-based

| Structure (SMILES) | selectivity ratio [1] | EC50 [2] [nM] | EC50 [3] [nM] | further results |
| --- | --- | --- | --- | --- |
| Cc1ccc(Nc2nc(NCc3ccco3)c3ccccc3n2)cc1 | 54 | 5900 | 109 |  |
| Fc1ccc(Nc2nc(NCc3ccco3)c3ccccc3n2)cc1 | 43 | 4900 | 112 |  |
| COc1cccc(Nc2nc(NCc3ccco3)c3ccccc3n2)c1OC |  | 20100 | 1300 |  |
| COc1ccc(Nc2nc(NCc3ccco3)c3ccccc3n2)cc1 | 20 | 2500 | 124 |  |
| COc1cccc(Nc2nc(NCC3CCCO3)c3ccccc3n2)c1 (centres undefined) | 33 | 7700 |  |  |
| NC(=O)c1ccc(Nc2nc(NCC3CCCO3)c3ccccc3n2)cc1 (centres undefined) | 50 | 34600 | 691 |  |
| Fc1ccc(Nc2nc(NCCN3CCOCC3)c3ccccc3n2)cc1 | 256 | 30100 | 118 |  |
| CC(=O)Nc1ccc(Nc2nc(NCC3CCCO3)c3ccccc3n2)cc1 (centres undefined) | 140 | 38300 | 274 |  |
| FC(F)(F)c1ccc(Nc2nc(NCc3ccccc3)c3ccccc3n2)cn1 | 87 | 8900 | 102 |  |
| Clc1ccc(Nc2nc(NCc3ccco3)c3ccccc3n2)cc1 | 71 | 7400 |  |  |
| COc1ccc2nc3cc(Cl)ccc3c(Nc3cc(CN4CCCC4)c(O)c(CN4CCCC4)c3)c2n1 [PYRONARIDINE] |  |  |  | EC50 [4]: 1400 nM; EC50 [5]: 25 nM; EC50 [6]: 16 nM |
| COc1ccc(Nc2nc(NCc3ccccc3)c3ccccc3n2)cc1 | 32 | 8500 | 264 | hepatic extraction ratio at 1 µM [7]: 0.51; hepatic extraction ratio at 1 µM [8]: 0.73; solubility kinetic [9]: 25 to 50 µM (≈ 8.91 to 17.8 µg/mL); half-life at 1 µM [10]: 65 min; solubility kinetic [11]: 1.6 to 3.1 µM (≈ 0.57 to 1.1 µg/mL); microsomal CLint at 1 µM [12]: 27 µL/min/mg; half-life at 1 µM [13]: 14 min; microsomal CLint at 1 µM [14]: 123 µL/min/mg |
| Cn1cnc2nc(Nc3ccc(F)cc3)nc(NCc3ccccc3)c21 | 7 | 9000 | 1200 |  |
| Clc1cc(Nc2nc(NCc3ccccc3)c3ccccc3n2)ccc1Br | 40 | 2900 | 137 | EC50 [15]: 128 nM |
| NC(=O)c1ccc(Nc2nc(NCc3ccco3)c3ccccc3n2)cc1 | 35 | 20000 | 569 |  |
| CN1CCC(Nc2nc(Nc3ccc(F)cc3)nc3ccccc23)CC1 | 227 | 11500 | 51 |  |
| Fc1cccc(Nc2nc(NCC3CCCO3)c3ccccc3n2)c1 (centres undefined) | 39 | 8600 | 144 |  |
| Fc1ccc(Nc2nc(NCc3ccccc3)c3sccc3n2)cc1 |  | 18700 | 866 |  |
| Fc1ccc(Nc2nc(NCc3ccccc3)c3ccccc3n2)cc1 | 67 | 5100 | 77 |  |
| CN1CCN(CCNc2nc(Nc3ccc(F)c(Cl)c3)nc3cccnc23)CC1 | 80 | 8900 | 110 |  |
| CNc1nc(Nc2ccc(F)cc2)nc2ccccc12 | 119 | 16200 | 136 |  |
| CN1CCN(CCNc2nc(Nc3ccc(F)cc3)nc3ccccc23)CC1 | 362 | 15300 | 42 | EC50 [15]: 122 nM |
| Fc1ccc(Nc2nc(NCc3ccccc3)c3ncccc3n2)cc1 | 320 | 18200 | 57 |  |
| Clc1cccc(Nc2nc(NCc3ccco3)c3ccccc3n2)c1 | 37 | 5000 | 134 |  |
| C[C@H]1[C@H](OC(=O)CCC(=O)O)O[C@@H]2O[C@@]3(C)CC[C@H]4[C@H](C)CC[C@@H]1[C@@]24OO3 [ARTESUNATE] |  |  | 8 | EC50 [15]: 6 nM; EC50 [4]: 8 nM; EC50 [5]: 3 nM; EC50 [6]: 3 nM |

| Structure (SMILES) | selectivity ratio [1] | EC50 [2] [nM] | EC50 [3] [nM] | further results |
| --- | --- | --- | --- | --- |
| Fc1ccc(Nc2nc(NCc3ccccc3)c3cccnc3n2)cc1 |  | 12400 | 636 |  |
| C[C@@H]1CC[C@H]2[C@@H](C)C(=O)O[C@@H]3O[C@@]4(C)CC[C@@H]1[C@]32OO4 [ARTEMISININ] |  |  |  | EC50 [16]: 2 nM; EC50 [17]: 5 nM |
| COc1ccccc1Nc1nc(NCC2CCCO2)c2ccccc2n1 (centres undefined) | 47 | 24500 | 526 |  |
| COC(=O)c1ccc(Nc2nc(NCc3ccco3)c3ccccc3n2)cc1 | 58 | 33500 | 574 |  |
| Fc1ccc(Nc2nc(NCc3ccccc3)c3ccccc3n2)cc1Cl | 114 | 6300 | 56 | EC50 [15]: 80 nM |
| CN(C)CCNc1nc(Nc2ccc(F)cc2)nc2ccccc12 | 267 | 27900 | 104 |  |
| c1ccc2c(NCC3CCCO3)nc(Nc3ccc4c(c3)OCO4)nc2c1 (centres undefined) | 51 | 8600 | 169 |  |
| CC(O)c1ccc(Nc2nc(NCc3ccco3)c3ccccc3n2)cc1 (centres undefined) |  | 12600 | 702 |  |
| CN1CCC(Nc2nc(Nc3ccc(F)c(Cl)c3)nc3cccnc23)CC1 | 86 | 11500 | 134 |  |
| COc1ccc(Nc2nc(N3CCOCC3)c3ccccc3n2)cc1 | 3 | 25600 | 7700 |  |
| Fc1ccc(Nc2nc(NCCN3CCCC3)c3ccccc3n2)cc1 | 343 | 26500 | 77 |  |
| FC(F)(F)c1ccc(Nc2nc(NCc3ccccc3)c3ccccc3n2)cc1 |  | 6400 | 105 |  |
| Fc1ccc(Nc2nc(NCc3ccccc3)c3ccncc3n2)cc1 | 33 | 17800 | 539 |  |
| Cn1ncc2c(NCc3ccccc3)nc(Nc3ccc(F)cc3)nc21 | 3 | 26000 | 7600 |  |
| Brc1ccc(Nc2nc(NCc3ccco3)c3ccccc3n2)cc1 | 153 | 19000 | 125 |  |
| Fc1cc(Nc2nc(NCc3ccccc3)c3ccccc3n2)ccc1Cl | 55 | 6600 | 121 | EC50 [15]: 75 nM |
| CN(C)c1nc(Nc2ccc(F)cc2)nc2ccccc12 | 48 | 20100 | 418 |  |
| CN1CCC(Nc2nc(Nc3ccc(Cl)c(F)c3)nc3cccnc23)CC1 | 39 | 11100 | 283 |  |
| CN1CCN(C(=O)CNc2nc(Nc3ccc(F)cc3)nc3ccccc23)CC1 | 473 | 30400 | 64 |  |
| CN1CCN(CCNc2nc(Nc3ccc(Cl)c(F)c3)nc3cccnc23)CC1 | 96 | 12300 | 128 |  |
| CNc1nc(Nc2ccc(OC)cc2)nc2ccccc12 | 168 | 26100 | 155 |  |
| Fc1ccccc1Nc1nc(NCC2CCCO2)c2ccccc2n1 (centres undefined) | 75 | 21300 | 317 |  |
| CCOc1ccc(Nc2nc(NCc3ccccc3)c3ccccc3n2)cc1 | 29 | 4500 | 159 |  |
| COc1ccc(Nc2nc(NCC3CCCO3)c3ccccc3n2)c(OC)c1 (centres undefined) | 19 | 15800 | 1100 |  |
| COc1cc([C@@H]2c3cc4c(cc3[C@@H](O[C@@H]3O[C@@H]5CO[C@@H](C)O[C@H]5[C@H](O)[C@H]3O)[C@H]3COC(=O)[C@H]23)OCO4)cc(OC)c1O [ETOPOSIDE] |  | 15900 |  |  |
